Measurements published in patent USRE43712E1, “Methods for assaying for antidepressant therapy markers” (The Board of Trustees of the Uniersity of Illinois, priority 2000, dated 2012).

Assays:
Giα = assay: Detergent extraction of Giα from C6-2B glioma membranes; format: cell-based; conditions: C6-2B cells, 10 μM, 3 days; FIG. 4
Description: Membrane proteins were extracted sequentially from C6-2B or rat synaptic membranes as described [Yan et al., J. Neurochem., 66:1489-1495; 1996]. These membranes were stirred on ice in HEPES (15 mM, pH 7.4) containing 1% Triton X-100 for 60 min followed by centrifugation at 100,000 g for 60 min at 4° C. The supernatant was reserved (Triton X-100 extract), and the resulting pellet was resuspended in Tris (15 mM, pH 7.4) containing 1.4% Triton X-114 and 150 mM NaCl. The solution was stirred for 60 min at 4° C. and centrifuged for 30 min at 100,000 g in the cold. The supernatant was saved (Triton X-114 extract). These supernatants and remaining pellet (remainder) were subjected to sodium dodecyl sulfate (SDS)-polyacrylamide gel electophoresis (PAGE) using 10% gels. […]
Rat cortex membrane, C6-2B cell membranes, or Triton extracts of each membrane preparation were subjected to SDS-PAGE followed by electrotransfer to polyvinylidene difluoride (PVDF) membrane. […] Immunoreactivity was detected with an enhanced chemiluminescence (ECL) western blot detection system (Amersham) in accord with the manufacturer's instructions. The developed autoradiographs were analyzed by densitometry.
Experiments were conducted (as described in Example 1) to ascertain the effect of antidepressant therapy on the mobility of Giα from C6-2B glioma cells. […] Immunoreactivity was detected with an ECL western blot detection system.

Gsα [1] = assay: Detergent extraction of Gsα from rat synaptic membrane after chronic antidepressant treatment; format: in vivo; conditions: short-term treatment (1-day treatment of cells or 1-week treatment of rats)
adenylyl cyclase = assay: Adenylyl cyclase activity in sucrose density gradient fractions of Triton X-100-solubilized C6-2B cells; format: cell-based; conditions: 10 μM desipramine-treated C6-2B cells
Description: C6-2B cells treated as described above were used to prepare Triton-insoluble, caveolin-enriched membrane fractions by the procedure of Li et al. [J. Biol. Chem., 270:15693-15701; 1995] with minor modifications. In brief, C6-2B cells were harvested into 0.75 ml of HEPES buffer (10 mM HEPES, pH 7.5, 150 mM NaCl, 1 mM DTT, 0.3 mM PMSF) containing 1% Triton X-100. Homogenization was carried out with 10 strokes of a Potter-Elvehjem homogenizer. The homogenate was adjusted to 40% sucrose by the addition of an equal volume of 80% sucrose prepared in HEPES buffer and placed at the bottom of an ultracentrifuge tube. A step gradient containing 30, 15, and 5% sucrose was formed above the homogenate and centrifuged at 50,000 rpm for 20 h in an SW65 rotor (240,000 g). Two or three opaque bands confined between the 15 and 30% sucrose layers were harvested, diluted threefold with HEPES buffer, and pelleted in a microcentrifuge at 16,000 g. The pellet was resuspended in HEPES buffer and identified as the Triton-insoluble fraction. The 40% sucrose region of the gradient was saved as the Triton-soluble fraction. In separate experiments, the same conditions were used, but instead of isolating the three opaque bands, 100-μl fractions were collected and assayed for Gs content and adenylyl cyclase activity.
Adenylyl cyclase was assayed as described previously [Rasenick et al., Brain Res., 488:105-113; 1989]. […]

Gsα [2] = assay: Gsα in Triton-insoluble, caveolin-enriched versus Triton-soluble fraction of C6-2B cells (sucrose density gradient, immunoblot); format: cell-based; conditions: chronic treatment, FIG. 3C
Description: Rat cortex membrane, C6-2B cell membranes, or Triton extracts of each membrane preparation were subjected to SDS-PAGE followed by electrotransfer to polyvinylidene difluoride (PVDF) membrane. The PVDF membrane was incubated with a phosphate-buffered saline/Tween 20 Buffer (140 mM NaCl, […]. 0.1% Tween 20, pH 7.4) and 3% bovine serum albumin. The membrane was then incubated with polyclonal rabbit antisera against the various G protein subunits [RM (Gsα) or 116 (Gi1, Gi2, Gi3α)] at a 1:25,000 (RM) or 1:5,000 (116) dilution (see below for source of antibodies). […] Immunoreactivity was detected with an enhanced chemiluminescence (ECL) western blot detection system (Amersham) in accord with the manufacturer's instructions. The developed autoradiographs were analyzed by densitometry.

Compound | Migration of Giα to a less hydrophobic membrane fraction (Giα) | Effect of short-term treatment on the parameters examined (Gsα [1]) | Basal adenylyl cyclase activity (adenylyl cyclase; gradient fractions) | Forskolin-stimulated adenylyl cyclase activity compared with control (adenylyl cyclase; gradient fractions 11 and 12, 10^−4 M forskolin) | Decrease of the amount of Gsα in the caveolin-enriched Triton-insoluble fraction, normalized to equal caveolin (Gsα [2]) [%]
CNCCC(Oc1ccc(C(F)(F)F)cc1)c1ccccc1 (centres unmarked) [Fluoxetine, fluoxetine] | did not migrate to a less hydrophobic membrane fraction | without effect | – | – | –
CNCCCN1c2ccccc2CCc2ccccc21 [Desipramine, desipramine] | – | – | unchanged | almost a twofold increase | ~50
